Results: US10696647B2, “Pharmacological treatment of obsessive-compulsive disorder” (BIOCODEX, priority 2013, dated 2020)
Where “and” joins values, the source holds several entries; their conditions need not be identical. Equal values may be shown once.

Columns and labels:
Assay type in all cases: in vivo, NMRI mice
[1] = tested on: marble-burying behavior in mice; assay: Marble-burying behavior in mice (model of obsessive-compulsive disorder); conditions: for number of marbles buried (at least 2/3 buried, counted after 30 min): vs vehicle; for dose at which the decrease in number of marbles buried reached significance: p<0.05 vs vehicle
Description: Marble-burying behavior in the rodent is considered to be a model of obsessive-compulsive disorder (OCD) and is commonly used to assess the activity of candidate compounds in the prevention or treatment of OCD (Ishimaru et al. (1995) Jpn. J. Pharmacol. 68:65-70; Gaikwad & Parle (2010) Asian Journal of Pharmaceutical and Clinical Research 3:101-103; Prajapati et al. (2011) Pharmacognosy Res. 3:62-66). […] In addition, because the motor behavior can interfere with the burying behavior, the effects of stripentol in the rota rod test and spontaneous locomotion have been also evaluated.
(§1) Six-week old NMRI mice (30-32 g) were purchased from Janvier breeding (Le Genest-St Isle; France). Mice were housed ten per translucent polypropylene cage (internal dimensions; 37.5 cm×37.5 cm×[…], L×W×H) under standard laboratory conditions (22±2° C., 12-h light/dark cycle, lights on at 7:00 AM) with food (AO4, SAFE, France) and tap water available ad libitum. No less than one week of rest followed their arrival. All animal procedures were carried out in accordance with the European Community council directive of 24 of Nov. 1986 (86/609/EEC) for the care and use of laboratory animals and the French government guidelines (authorization C60-159-04—December, 2009).
Mice were habituated to the testing room at least 60 min before any behavioural evaluation. All tests took place between 9:00 AM and 3:00 PM unless otherwise stated. The behavioural tests were performed by different well-trained experimenters who were kept unaware of the treatment administered. All experiments were performed in a randomized manner.
The marble-burying behavior of mice was conducted according to the methodology of Njung'e and Handley (1991) Pharmacol Biochem Behav 1991; 38: 63-67. Briefly, each mouse was placed individually in a polycarbonate cage (Type S-River; 26.5×16×14 cm height) containing 20 clean glass marbles of diameter 1.5 cm evenly spaced on 5 cm deep sawdust. The cage-lid was a metal grid. No food or water was present. The marbles were cleaned with an alcohol solution (10%; v/v) between each animal. The number of marbles at least ⅔ buried was counted 30 min later.
These compounds were administered under a volume of 0.1 ml/10 g of body weight. Control animals received an equivalent volume of vehicle.
(§2) All data are expressed as mean±SEM. The number of marble buried, locomotor activity and the time spent on the rot rod were analyzed by one-way analyse of variance (ANOVA) or the Kruskall Wallis procedure followed post-hoc by the Dunnett's test or Dunn's method respectively to locate the differences between the treated groups and the vehicle group. Differences were considered statistically significant when p<0.05. Statistical tests were run using SigmaStat v3.5 (SPSS, inc, Chicago, Ill., USA).

[2] = tested on: rotarod performance time; assay: Rotarod test (motor performance and coordination); conditions: doses up to 200 mg/kg i.p.; 16 rpm, up to 120 s
Method: as §1
Mice were habituated to the testing room at least 60 min before any behavioural evaluation. […]
The rotarod test was performed in accordance with the teachings of Kohara et al. (2005) J Pharmacol Exp Ther 2005; 315: 163-169. […] In the drug evaluation session, rotarod performance time was measured three times, up to 120 s, and the mean was adopted as the performance time for each animal. […]
as §2, with “Differences were considered statistically significant when p<0.05. Statistical tests were run using SigmaStat v3.5 (SPSS, inc, Chicago, Ill., USA).” left out

[3] = tested on: spontaneous locomotion; assay: Spontaneous locomotor activity (distance travelled, rearings); conditions: up to 200 mg/kg i.p.; measured for 30 min
Method: as §1, with “2009). […]” for “2009).”
Testing occurred in a quiet room under a light level of approximately 400 lux. […] Locomotor activity and rearing were measured by vibrations analysis and the interruption of infra-red beams respectively (ActiV-Meter; Software BIO-ACTIV; Bioseb-Vitrolles-France). The distance travelled (in cm) and the number of rearings were measured for 30 min. […]
as §2, with “Differences were considered statistically significant when p<0.05. Statistical tests were run using SigmaStat v3.5 (SPSS, inc, Chicago, Ill., USA).” left out

Structure (SMILES): CN(C)CCCN1c2ccccc2CCc2ccc(Cl)cc21 [clomipramine]
- number of marbles buried (at least 2/3 buried, counted after 30 min) ([1]; clomipramine 5-20 mg/kg i.p. 30 min before testing, H(3)=20.412, p<0.001): significantly reduced the number of marbles buried
- dose at which the decrease in number of marbles buried reached significance ([1]; clomipramine i.p. 30 min before testing): 10 mg/kg and 20 mg/kg

Structure (SMILES): CC(C)(C)C(O)/C=C/c1ccc2c(c1)OCO2 (racemic) [stiripentol]
- time spent on the rota rod [2]: without any significant effect
- distance travelled [3]: did not significantly modify the distance travelled
- number of rearings [3]: did not significantly impair the number of rearings
- number of marbles buried (at least 2/3 buried, counted after 30 min) ([1]; stiripentol 100-200 mg/kg i.p. 60 min before testing, F(3.42)=5.425, p=0.003): dose-dependently decreased the number of marbles buried
- dose at which the decrease in number of marbles buried reached significance ([1]; stiripentol i.p. 60 min before testing): 200 mg/kg
